Assay results as given in patent US7960395B2, “5,7-disubstituted thiazolo[4,5-d]pyrimidines for the selective inhibition of chemokine receptors” (AstraZeneca AB, priority 2006, dated 2011).

target: T1, hCX3CR1 (Homo sapiens, UniProt P49238); assay: in vitro hCX3CR1 binding assay ([125I]-fractalkine competition binding, membranes); details: final compounds
T1 construct: expressed in transfected cells; host or cells: human embryonic kidney suspension (HEKS) 293 cells stably expressing chimeric G-protein Gαqi5; membranes prepared from them
T1 sequence (P49238 1-355): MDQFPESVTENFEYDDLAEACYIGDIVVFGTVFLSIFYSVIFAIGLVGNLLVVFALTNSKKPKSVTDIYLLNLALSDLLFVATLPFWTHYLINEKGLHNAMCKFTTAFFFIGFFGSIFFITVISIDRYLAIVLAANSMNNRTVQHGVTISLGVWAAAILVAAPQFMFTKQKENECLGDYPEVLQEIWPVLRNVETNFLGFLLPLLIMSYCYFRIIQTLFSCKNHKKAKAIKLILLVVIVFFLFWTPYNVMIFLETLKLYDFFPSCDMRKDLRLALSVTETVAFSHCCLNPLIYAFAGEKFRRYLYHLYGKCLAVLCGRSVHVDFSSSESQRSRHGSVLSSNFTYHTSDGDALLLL
Excerpt: Recombinant human fractalkine (hCX3CL1) and recombinant human interleukin-8 (IL-8 or hCXCL8) were purchased from PeproTech Inc., UK. Recombinant [^125I]-fractalkine (human) and [^125I]hIL-8 with the specific activity of 2200 Ci/mmol, was purchased from NEN® Life Science Products, Inc., UK. Fluo-4-AM was purchased from Molecular Probes, US. All other chemicals were of analytical grade.
The complete human CX3CR1 cDNA (GenBank accession number U20350) was extracted from human brain mRNA (Superscript, Life Technologies) and ligated into pCR-Blunt II TOPO vector (InVitrogen). The insert corresponding hCX3CR1 was isolated and further subcloned into pcDNA3.1zeo. Plasmid DNA was prepared using Plasmid Midi Kit (Qiagen). Using Superfect Transfection Reagent (Qiagen) according to the manufacturer's protocol the expression plasmid for hCX3CR1 was then introduced into human embryonic kidney suspension (HEKS) 293 cell line containing a vector for stable expression of a chimeric G-protein Gαqi5. A stable clone was generated utilizing zeocin (500 μg/mL) and hygromycin (100 μg/mL) selection. For further applications the cells were maintained in Dulbecco's modified Eagle's medium/Ham's nutrient mix F12 (DMEM/F12) containing pyridoxine and supplemented with 10% (v/v) fetal bovine serum, 2 mM L-glutamine, 100 U/ml penicillin and […] streptomycin, 250 μg/mL zeocin and 100 μg/mL hygromycin.
Cells are grown at 37° C. and 5% CO2 and harvested at 60-80% confluence in buffer containing 10 mM Tris-HCl pH 7.4, 5 mM EDTA, 0.1 mg/mL bacitracin. The cells are centrifuged at 300×g for 10 min and the pellet is resuspended in harvesting buffer (10 mM Tris-HCl, pH 7.4, 5 mM ethylenediaminetetra-aceticacid (EDTA) and 0.1 mg/mL bacitracin), pooled and homogenised using a Dounce homogeniser. The homogenate is centrifuged in 48000×g for 10 min and resuspended in harvesting buffer using Ultra-Turrax T8. Membrane aliquots are stored at −80° C. Protein concentration was determined in microtiter plates as described by Harrington (1990, Anal. Biochem. 186, 285-287).
Competition binding studies of [^125I]fraktalkine were performed in 2 mL 96-deep-well plates (Beckman, Germany) in a total volume of 1000 μL/well. Each well contained […] [^125I]-fractalkine and membrane equivalent to receptor concentration of 1 μM in assay buffer (50 mM Hepes-KOH, pH 7.4, 10 mM MgCl2, 1 mM EDTA, 0.1% (w/v) gelatine). Ten concentrations (2 points/log unit) of the test compounds were pre-dissolved in DMSO and added to reach a final concentration of 1% (v/v) DMSO. The assay was initiated with the addition of membranes and incubated at 25° C. for 24 h. The reactions were stopped by rapid filtration through Whatman GF/B glass fiber filters pretreated with 0.3% polyethylimine and subsequent washing with ice-cold buffer (10 mM Hepes-KOH pH 7.4, 500 mM NaCl) using a Brandel receptor binding harvester. Scintillation cocktail was added and radioactivity was determined in a Packard 2500TR liquid scintillation counter. (Perkin Elmer, USA)

| Compound | Ki [nM] |
| --- | --- |
| CC(C)C[C@H](CO)Nc1nc(S[C@@H](C)c2ncccc2F)nc2[nH]c(=O)sc12 [Example 4, 5-{[(1S)-1-(3-Fluoropyridin-2-yl)ethyl]thio}-7-{[(1R)-1-(hydroxymethyl)-3-methylbutyl]amino}[1,3]thiazolo[4,5-d]pyrimidin-2(3H)-one] | 18 |
| CCC[C@H](CO)Nc1nc(S[C@@H](C)c2ccc(Cl)nc2)nc2[nH]c(=O)sc12 [Example 6, 5-{[(1S)-1-(6-Chloropyridin-3-yl)ethyl]thio}-7-{[(1R)-1-(hydroxymethyl)butyl]amino}[1,3]thiazolo[4,5-d]pyrimidin-2(3H)-one] | 21.4 |
| CC(C)C[C@H](CO)Nc1nc(S[C@@H](C)c2ccc(F)cn2)nc2[nH]c(=O)sc12 [Example 2, 5-{[(1S)-1-(5-Fluoropyridin-2-yl)ethyl]thio}-7-{[(1R)-1-(hydroxymethyl)-3-methylbutyl]amino}[1,3]thiazolo[4,5-d]pyrimidin-2(3H)-one] | 20 |
| CCC[C@H](CO)N(C)c1nc(S[C@@H](C)c2ccc(Cl)nc2)nc2[nH]c(=O)sc12 [Example 7, 5-{[(1S)-1-(6-Chloropyridin-3-yl)ethyl]thio}-7-[[(1R)-1-(hydroxymethyl)butyl](methyl)amino][1,3]thiazolo[4,5-d]pyrimidin-2(3H)-one] | 440 |
| CC(C)C[C@H](CO)Nc1nc(S[C@@H](C)c2ccc(Cl)cn2)nc2[nH]c(=O)sc12 [Example 1, 5-{[(1S)-1-(5-Chloropyridin-2-yl)ethyl]thio}-7-{[(1R)-1-(hydroxymethyl)-3-methylbutyl]amino}[1,3]thiazolo[4,5-d]pyrimidin-2(3H)-one] | 5.8 |

Now from value to molecule:

| Ki [nM] | Compound |
| --- | --- |
| 1.5 | CC(C)C[C@H](CO)Nc1nc(S[C@@H](C)c2ccncc2F)nc2[nH]c(=O)sc12 [Example 8b, 5-{[(1S)-1-(3-Fluoropyridin-4-yl)ethyl]thio}-7-{[(1R)-1-(hydroxymethyl)-3-methylbutyl]amino}[1,3]thiazolo[4,5-d]pyrimidin-2(3H)-one] |
| 97 | CC(C)C[C@H](CO)Nc1nc(S[C@H](C)c2ccncc2F)nc2[nH]c(=O)sc12 [Example 8a, 5-{[(1R)-1-(3-Fluoropyridin-4-yl)ethyl]thio}-7-{[(1R)-1-(hydroxymethyl)-3-methylbutyl]amino}[1,3]thiazolo[4,5-d]pyrimidin-2(3H)-one] |
